{"source": "patent US11369565B2", "about": "“Amino-pyrimidine skeletal muscle modulators” (Cytokinetics, Inc., priority 2010, dated 2022)", "data": [{"system": "rabbit skeletal myofibrils (approximately 90% fast fibers)", "test": "Activation of fast skeletal myofibrils (PUMA coupled-enzyme ATPase assay at pCa25)", "assay_type": "biochemical", "conditions": "concentration at which the compound increased the enzymatic activity by 40%; calcium at pCa25; PM12 buffer pH 6.8", "in_short": "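Detergent-washed rabbit psoas myofibrils tested at calcium giving 25% of maximal rate (pCa25). ATPase activity tracked by pyruvate kinase/lactate dehydrogenase coupling, NADH oxidation read as absorbance at 340 nm, in PM12 buffer (12 mM Pipes, 2 mM MgCl2, 1 mM DTT, pH 6.8).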", "values": [{"smiles": "NC(=O)Cc1cnc(-c2cnc(NCC3(c4ncccc4F)CCC3)nc2)s1", "note": "[2-{2-[2-({[(3-fluoro-2-pyridyl)cyclobutyl]methyl}amino)pyrimidin-5-yl]-1,3-thiazol-5-yl}acetamide]", "Mean AC1.4": "B (B=1-10 uM)"}, {"smiles": "CCNC(=O)c1cnc(NCC2(c3ncccc3F)CCC2)nc1", "note": "[N-ethyl[2-({[(3-fluoro(2-pyridyl))cyclobutyl]methyl}amino)pyrimidin-5-yl] carboxamide]", "Mean AC1.4": "D (D=>20 uM)"}, {"smiles": "N#Cc1cc(-c2cnc(NC3(c4ncccc4F)CCC3)nc2)ccn1", "note": "[4-(2-{[(3-fluoro-2-pyridyl)cyclobutyl]amino}pyrimidin-5-yl)pyridine-2-carbonitrile]", "Mean AC1.4": "D (D=>20 uM)"}, {"smiles": "CC(=O)NCc1cnn(-c2cnc(NC(C)(C)c3ncccc3Cl)nc2)c1", "note": "[N-{[1-(2-{[1-(3-chloro(2-pyridyl))-isopropyl]amino}pyrimidin-5-yl)pyrazol-4-yl)]methyl}acetamide]", "Mean AC1.4": "D (D=>20 uM)"}, {"smiles": "CC(=O)NCc1cnc(-c2cnc(NCC3(c4ncccc4F)CCC3)nc2)s1", "note": "[N-({2-[2-({[(3-fluoro-2-pyridyl)cyclobutyl]methyl}amino)pyrimidin-5-yl]-1,3-thiazol-5-yl}methyl)acetamide]", "Mean AC1.4": "B (B=1-10 uM)"}, {"smiles": "NC(=O)c1ccc(F)c(-c2cnc(NCC3(c4ncccc4Cl)CCC3)nc2)c1", "note": "[3-[2-({[(3-chloro(2-pyridyl))cyclobutyl]methyl}amino)pyrimidin-5-yl]-4-fluorobenzamide]", "Mean AC1.4": "A (A=<1 uM)"}, {"smiles": "CNC(=O)c1ccnc(-c2cnc(NC[C@]3(c4ncccc4F)C[C@H](F)C3)nc2)c1", "note": "[{2-[2-({[3-fluoro-1-(3-fluoro(2-pyridyl))cyclobutyl]methyl}amino)pyrimidin-5-yl](4-pyridyl)}-N-methylcarboxamide]", "Mean AC1.4": "B (B=1-10 uM)"}, {"smiles": "CNC(=O)c1ccnc(-c2cnc(NC[C@]3(c4ncccc4F)C[C@H](F)C3)nc2)n1", "note": "[{2-[2-({[3-fluoro-1-(3-fluoro(2-pyridyl))cyclobutyl]methyl}amino)pyrimidin-5-yl]pyrimidin-4-yl}-N-methylcarboxamide]", "Mean AC1.4": "B (B=1-10 uM)"}, {"smiles": "Cc1nc(NC[C@]2(c3ncccc3F)C[C@H](F)C2)ncc1-c1ccc(CC(N)=O)cc1", "note": "[2-{4-[2-({[3-fluoro-1-(3-fluoro(2-pyridyl))cyclobutyl]methyl}amino)-4-methylpyrimidin-5-yl]phenyl}acetamide]", "Mean AC1.4": "B (B=1-10 uM)"}, {"smiles": "CNC(=O)c1ccn(-c2cnc(NC[C@]3(c4ncccc4F)C[C@H](F)C3)nc2)c1", "note": "[{1-[2-({[3-fluoro-1-(3-fluoro(2-pyridyl))cyclobutyl]methyl}amino)pyrimidin-5-yl]pyrro1-3-yl}-N-methylcarboxamide]", "Mean AC1.4": "B (B=1-10 uM)"}, {"smiles": "N#Cc1ccc2nc(NC3(c4ncccc4F)CCC3)ncc2c1", "note": "[2-{[(3-fluoro-2-pyridyl)cyclobutyl]amino}quinazoline-6-carbonitrile]", "Mean AC1.4": "D (D=>20 uM)"}, {"smiles": "CC(C)(Nc1ncc(-c2ncc(CNC(=O)c3c[nH]c(O)n3)s2)cn1)c1ncccc1Cl", "note": "[N-{[2-(2-{[1-(3-chloro(2-pyridyl))-isopropyl]amino}pyrimidin-5-yl)(1,3-thazol-5-yl)]methyl}(2-hydroxyimidazol-4-yl)carboxamide]", "Mean AC1.4": "B (B=1-10 uM)"}, {"smiles": "CC(=O)Nc1n[nH]c2ccc(-c3cnc(NC(C)(C)c4ncccc4Cl)nc3)cc12", "note": "[N-[5-(2-{[1-(3-chloro(2-pyridyl))-isopropyl]amina}pyrimidin-5-yl)-1H-indazol-3-yl]acetamide]", "Mean AC1.4": "B (B=1-10 uM)"}, {"smiles": "CC(C)(Nc1ncc(-c2cc(C(N)=O)no2)cn1)c1ncccc1Cl", "note": "[5-(2-{[1-(3-chloro(2-pyridyl))-isopropyl]amino}pyrimidin-5-yl)isoxazole-3-carboxamide]", "Mean AC1.4": "B (B=1-10 uM)"}, {"smiles": "Oc1ccc(-c2cnc(NC[C@]3(c4ncccc4F)C[C@H](F)C3)nc2)nc1", "note": "[6-[2-({[3-fluoro-1-(3-fluoro(2-pyridyl))cyclobutyl]methyl}amino)pyrimidin-5-yl]pyridin-3-ol]", "Mean AC1.4": "B (B=1-10 uM)"}, {"smiles": "CNC(=O)c1cccc(-c2cnc(NC[C@]3(c4ncccc4F)C[C@H](F)C3)nc2)c1", "note": "[{3-[2-({[3-fluoro-1-(3-fluoro(2-pyridyl))cyclobutyl]methyl}amino)pyrimidin-5-yl]phenyl}-N-methylcarboxamide]", "Mean AC1.4": "B (B=1-10 uM)"}, {"smiles": "CC(C)(Nc1ncc(-n2ccc(C(N)=O)c2)cn1)c1ncccc1Cl", "note": "[1-(2-{[1-(3-chloro(2-pyridyl))-isopropyl]amino}pyrimidin-5-yl)pyrrole-3-carboxamide]", "Mean AC1.4": "B (B=1-10 uM)"}, {"smiles": "O=C(Nc1cccc(F)c1)c1cnc(NCC2(c3ncccc3F)CCC2)nc1", "note": "[[2-({[(3-fluoro(2-pyridyl))cyclobutyl]methyl}amino)pyrimidin-5-yl]-N-(3-fluorophenyl)carboxamide]", "Mean AC1.4": "D (D=>20 uM)"}, {"smiles": "NC(=O)c1ccc(F)c(-c2cnc(NC[C@]3(c4ncccc4F)C[C@H](F)C3)nc2)c1O", "note": "[4-fluoro-3-[2-({[3-fluoro)-1-(3-fluoro(2-pyridyl))cyclobutyl]methyl}amino)pyrimidin-5-yl]-2-hydroxybenzamide]", "Mean AC1.4": "A (A=<1 uM)"}, {"smiles": "CC(C)(C)OC(=O)NCc1cnc(-c2cnc(NCC3(c4ncccc4Cl)CCC3)nc2)s1", "note": "[(tert-butoxy)-N-({2-[2-({[(3-chloro(2-pyridyl))cyclobutyl]methyl}amino)pyrimidin-5-yl](1,3-thiazol-5-yl)}methyl)carboxamide]", "Mean AC1.4": "A (A=<1 uM)"}, {"smiles": "CC(C)(Nc1ncc(-c2nccs2)cn1)c1ncccc1Cl", "note": "[[1-(3-chloro(2-pyridyl))-isopropyl](5-(1,3-thiazol-2-yl)pyrimidin-2-yl)amine]", "Mean AC1.4": "B (B=1-10 uM)"}, {"smiles": "Oc1cnc(-c2cnc(NC[C@]3(c4ncccc4F)C[C@H](F)C3)nc2)c(F)c1", "note": "[5-fluoro-6-[2-(([3-fluoro-1-(3-fluoro(2-pyridyl))cyclobutyl]methyl}amino)pyrimidin-5-yl]pyridin-3-ol]", "Mean AC1.4": "B (B=1-10 uM)"}, {"smiles": "CC(C)(CNc1ncc(C(=O)NC2(C(=O)O)CC2)cn1)c1ccc(F)cc1", "note": "[1-[(2-{[2-(4-fluorophenyl)-2-methylpropyl]amino}pyrimidin-5-yl)carbonylamino] cyclopropanecarboxylic acid]", "Mean AC1.4": "D (D=>20 uM)"}, {"smiles": "CCOC(=O)c1cc(-c2cnc(NC(C)(C)c3ncccc3Cl)nc2)no1", "note": "[ethyl 3-(2-{[1-(3-chloro(2-pyridyl))-isopropyl]amino}pyrimidin-5-yl)isoxazole-5-carboxylate]", "Mean AC1.4": "D (D=>20 uM)"}, {"smiles": "CC(C)(CNc1ncc2c(n1)CN(C(N)=O)CC2)c1ccc(F)cc1", "note": "[2-{[2-(4-fluorophenyl)-2-methylpropyl]amino}-5,6,7,8-tetrahydropyridino[3,4-d]pyrimidine-7-carboxamide]", "Mean AC1.4": "D (D=>20 uM)"}, {"smiles": "NC(=O)Cc1ccccc1-c1cnc(NC[C@]2(c3ncccc3F)C[C@H](F)C2)nc1", "note": "[2-{2-[2-({[3-fluoro-1-(3-fluoro(2-pyridyl))cyclobutyl)]methyl}amino)pyrimidin-5-yl]phenyl)acetamide]", "Mean AC1.4": "C (C=10-20 uM)"}, {"smiles": "O=C(Nc1nccs1)c1cnc(NCC2(c3ncccc3F)CCC2)nc1", "note": "[[2-({[(3-fluoro(2-pyridyl))cyclobutyl]methyl}amino)pyrimidin-5-yl]-N-(1,3-thiazol-2-yl)carboxamide]", "Mean AC1.4": "B (B=1-10 uM)"}, {"smiles": "O=C1Cc2cccc(-c3cnc(NC[C@]4(c5ncccc5F)C[C@H](F)C4)nc3)c2N1", "note": "[7-[2-({[3-fluoro-1-(3-fluoro(2-pyridyl))cyclobutyl)]methyl}amino) pyrimidin-5-yl]indolin-2-one]", "Mean AC1.4": "B (B=1-10 uM)"}, {"smiles": "CC(C)(Nc1ncc(-c2cc(C(N)=O)ccc2F)cn1)c1cccnc1Cl", "note": "[3-(2-{[1-(2-chloro(3-pyridyl))-isopropyl]amino}pyrimidin-5-yl)-4-fluorobenzamide]", "Mean AC1.4": "B (B=1-10 uM)"}, {"smiles": "Fc1cccnc1C1(Nc2ncc(-c3ccc4[nH]ncc4c3)cn2)CCC1", "note": "[(5-(1H-indazol-5-yl)pyrimidin-2-yl)[(3-fluoro(2-pyridyl))cyclobutyl]amine]", "Mean AC1.4": "B (B=1-10 uM)"}, {"smiles": "NC(=O)c1ccnc(NC2(c3ccc(F)cc3)CCC2)n1", "note": "[2-{[(4-fluorophenyl)cyclobutyl]amino} pyrimidine-4-carboxamide]", "Mean AC1.4": "C (C=10-20 uM)"}, {"smiles": "CC(C)(C)NC(=O)c1cc(-c2cnc(NC(C)(C)c3ncccc3Cl)nc2)cnn1", "note": "[N-(tert-butyl)[5-(2-{[1-(3-chloro(2-pyridyl))-isapropyl]amino}pyrimidin-5-yl)pyridazin-3-yl]carboxamide]", "Mean AC1.4": "D (D=>20 uM)"}, {"smiles": "CC(=O)N1CC(NC(=O)c2ccc(F)c(-c3cnc(NC[C@]4(c5ncccc5F)C[C@H](F)C4)nc3)c2)C1", "note": "[N-(1-acetylazetidin-3-yl) {4-fluoro-3-[2-({[3-fluoro-1-(3-fluoro(2-pyridyl))cyclobutyl]methyl}aminopyrimidin-5-yl]phenyl}carboxamide]", "Mean AC1.4": "B (B=1-10 uM)"}, {"smiles": "CS(=O)(=O)N1CC(NC(=O)c2cccc(-c3cnc(NC[C@]4(c5ncccc5F)C[C@H](F)C4)nc3)c2)C1", "note": "[{3-[2-({[3-fluoro-1-(3-fluoro(2-pyridyl))cyclobutyl]methyl}amino)pyrimidin-5-yl]phenyl}-N-[1-(methylsulfonyl)azetidin-3-yl]carboxamide]", "Mean AC1.4": "B (B=1-10 uM)"}, {"smiles": "CC(C)(CNc1ncc(-c2cncc(C(N)=O)c2)cn1)c1ccc(F)cc1", "note": "[5-(2-{[2-(4-fluorophenyl)-2-methylpropyl]amino}pyrimidin-5-yl)pyridine-3-carboxamide]", "Mean AC1.4": "B (B=1-10 uM)"}, {"smiles": "CCOC(=O)c1csc(-c2cnc(NCC3(c4ncccc4F)CCC3)nc2)n1", "note": "[ethyl 2-[2-({[(3-fluoro-2-pyridyl)cyclobutyl]methyl}amino)pyrimidin-5-yl]-1,3-thiazole-4-carboxylate]", "Mean AC1.4": "D (D=>20 uM)"}]}]}
